Patent US20260137701A1, “CHOLESTENOIC ACID (CA) AND A SULFATED DERIVATIVE THEREOF, 3[BETA]-SULFATE-5-CHOLESTENOIC ACID (CA3S), AS ENDOGENOUS EPIGENETIC REGULATORS” (priority 2022, published 2026)
Values joined by “and” are separate entries in the source; they are usually repeats but may differ in a detail not shown here. Equal entries are not always repeated.

System: HepG-2 cells
Test: Whole genome bisulfite sequencing (WGBS), differentially methylated regions
Format: cell-based, human
Conditions: for number of DMRs, whole genome, hyper-methylated / number of DMRs, whole genome, hypo-methylated / number of DMRs, whole genome, total: 20 μM CA vs vehicle
Protocol: After culturing HepG-2 cells in DMEM medium with HG for 72 hours followed by treating with 20 μM CA for 0, 3, 6, 12, and 24 hours, genomic DNA from 5×10^7 cells were extracted using QIAamp® DNA Mini Kit (QIAGEN, Hilden, Germany). Each sample, 6 μg, was sent to CD Genomics Co., Ltd (New York, USA) for analysis of WGBS. Total RNA was isolated using the Promega SV total RNA isolation system (Madison, WI, USA) with DNase treatment. Each sample, 2 μg, were sent to CD Genomics Co., Ltd (New York, USA) for analysis of RNA sequencing. The same samples, 2 μg, was used for the first-strand cDNA synthesis as recommended by the manufacturer (Invitrogen, Carlsbad, CA). RT-qPCR was performed using SYBR Green as the indicator on ABI 7500 Fast Real-Time PCR System (Applied Biosystems, Foster City, CA). Amplifications of j-actin or GAPDH were used as internal controls. Relative messenger RNA (mRNA) expression was quantified with the comparative cycle threshold (Ct) method using a sutiable primer set and was expressed as 2-ΔΔCt as described previously.
Each sample, 1 μg of genomic DNA was fragmented by sonication to a mean size of approximately 200-400 bp, and subsequently used for WGBS library construction using Acegen Bisulfite-Seq Library Prep Kit (Acegen) following the manufacturer's instructions. The methylated adapter-ligated DNAs were purified using 0.8×Agencourt AMPure™ XP magnetic beads and subjected to bisulfite conversion by ZYMO EZ DNA Methylation-Gold™ Kit (Zymo Research Corporation, CA, USA). The converted DNAs were then amplified using 25 μl KAPA HiFi™ HotStart Uracil+ ReadyMix (2×) and 8-bp index primers with a final concentration of 1 μM each. The constructed WGBS libraries were then analyzed by Agilent 2100 Bioanalyzer and quantified by a Qubit fluorometer with Quant-iT™ dsDNA HS Assay Kit (Invitrogen), and finally sequenced on Illumina® Hiseq X™ Ten sequencer. After the preparation of the library, Qubit 2.0 and Agilent 2100 were used respectively to detect the concentration of the library and the Insert Size, and the effective concentration (>2 nM) of the library was quantitatively determined by Q-PCR to ensure the library quality.
Samples were sequenced using the Illumina® HiSeq sequencing platform. Raw data generated on the sequencing platform contained a small percentage of low-quality data, which was then filtered to get high-quality data. Bsmap software was used to perform alignments of bisulfite-treated reads to a reference genome (GRCh37). Metilene software was used to identify differentially methylated regions (DMRs). DAVID software (website located at david.ncifcrf.gov/) was used to test the statistical enrichment of DMR related genes in the Gene Ontology (GO) and Kyoto Encyclopedia of Genes and Genomes (KEGG) pathways.

CC(CCC[C@@H](C)[C@H]1CC[C@H]2[C@@H]3CC=C4C[C@@H](O)CC[C@]4(C)[C@H]3CC[C@]12C)C(=O)O (stereo partly drawn) [CA, 3β-hydroxy-5-cholestenoic acid]
number of DMRs, whole genome, hyper-methylated (3 hours): 11,818
number of DMRs, whole genome, hypo-methylated (3 hours): 215,747
number of DMRs, whole genome, total (3 hours): 227,565
number of DMRs, whole genome, hyper-methylated (6 hours): 10,537
number of DMRs, whole genome, hypo-methylated (6 hours): 497,685
number of DMRs, whole genome, total (6 hours): 508,222
number of DMRs, whole genome, hyper-methylated (12 hours): 14,658
number of DMRs, whole genome, hypo-methylated (12 hours): 544,916
number of DMRs, whole genome, total (12 hours): 559,574
number of DMRs, whole genome, hyper-methylated (24 hours): 8,808
number of DMRs, whole genome, hypo-methylated (24 hours): 679,051
number of DMRs, whole genome, total (24 hours): 687,859
DMR (Methylation %) ADRA1A promoter region (20 μM CA, 3 h): −30.28%
DMR (Methylation %) ADRA1B promoter region (20 μM CA, 3 h): 0%
DMR (Methylation %) ADRA1 promoter region (20 μM CA, 3 h): −30.28%
DMR (Methylation %) BCL6 promoter region (20 μM CA, 3 h): −20.42%
DMR (Methylation %) CACNA1D promoter region (20 μM CA, 3 h): −55.12%
DMR (Methylation %) CALML3 promoter region (20 μM CA, 3 h): −27.06% and −27.05%
DMR (Methylation %) CALML4 promoter region (20 μM CA, 3 h): −21.08%
DMR (Methylation %) CAMKK2 promoter region (20 μM CA, 3 h): 0%
DMR (Methylation %) COX7B promoter region (20 μM CA, 3 h): −30.9%
DMR (Methylation %) COX8A promoter region (20 μM CA, 3 h): −25.87%
DMR (Methylation %) CPT1C promoter region (20 μM CA, 3 h): −18.8%
DMR (Methylation %) CREB3L4 promoter region (20 μM CA, 3 h): 0%
DMR (Methylation %) CYP1A1 promoter region (20 μM CA, 3 h): −30.07%
DMR (Methylation %) ESR2 promoter region (20 μM CA, 3 h): 0%
DMR (Methylation %) FBP1 promoter region (20 μM CA, 3 h): 0%
DMR (Methylation %) FGF1 promoter region (20 μM CA, 3 h): −54.6%
DMR (Methylation %) FGF8 promoter region (20 μM CA, 3 h): −19.97%
DMR (Methylation %) FGFR2 promoter region (20 μM CA, 3 h): −26.28%
DMR (Methylation %) LDHA promoter region (20 μM CA, 3 h): −29.00%
DMR (Methylation %) LDHAL6A promoter region (20 μM CA, 3 h): 0%
DMR (Methylation %) LDHC promoter region (20 μM CA, 3 h): −20.18%
DMR (Methylation %) LEP promoter region (20 μM CA, 3 h): 0%
DMR (Methylation %) MIR29A promoter region (20 μM CA, 3 h): −15.46%
DMR (Methylation %) MIRLET7B promoter region (20 μM CA, 3 h): 0%
DMR (Methylation %) MTOR promoter region (20 μM CA, 3 h): −20.34%
DMR (Methylation %) NTRK3 promoter region (20 μM CA, 3 h): 0%
DMR (Methylation %) PDHA2 promoter region (20 μM CA, 3 h): 0%
DMR (Methylation %) PDHB promoter region (20 μM CA, 3 h): −21.86%
DMR (Methylation %) PHKG1 promoter region (20 μM CA, 3 h): −15.73%
DMR (Methylation %) PPARG promoter region (20 μM CA, 3 h): 0%
DMR (Methylation %) SDHA promoter region (20 μM CA, 3 h): 0%
DMR (Methylation %) SDHB promoter region (20 μM CA, 3 h): 0%
DMR (Methylation %) SPHK2 promoter region (20 μM CA, 3 h): 0%
DMR (Methylation %) UQCRC1 promoter region (20 μM CA, 3 h): −23.76%
DMR (Methylation %) VDAC2 promoter region (20 μM CA, 3 h): −27.41%
number of DMRs in promoter region, hyper-methylated (20 μM CA, 3 hours): 2,323
number of DMRs in promoter region, hypo-methylated (20 μM CA, 3 hours): 12,431
number of DMRs in promoter region, total (20 μM CA, 3 hours): 14,754
DMR (Methylation %) ADRA1A promoter region (20 μM CA, 6 h): −41.25%
DMR (Methylation %) ADRA1B promoter region (20 μM CA, 6 h): −33.89%
DMR (Methylation %) ADRA1 promoter region (20 μM CA, 6 h): −41.25%
DMR (Methylation %) BCL6 promoter region (20 μM CA, 6 h): −43.30%
DMR (Methylation %) CACNA1D promoter region (20 μM CA, 6 h): −69.06% and −69.10%
DMR (Methylation %) CALML3 promoter region (20 μM CA, 6 h): −47.29%
DMR (Methylation %) CALML4 promoter region (20 μM CA, 6 h): −31.79%
DMR (Methylation %) CAMKK2 promoter region (20 μM CA, 6 h): −37.97%
DMR (Methylation %) COX7B promoter region (20 μM CA, 6 h): −83.31%
DMR (Methylation %) COX8A promoter region (20 μM CA, 6 h): −35.3%
DMR (Methylation %) CPT1A promoter region (20 μM CA, 6 h): −41.69%
DMR (Methylation %) CPT1C promoter region (20 μM CA, 6 h): −34.41%
DMR (Methylation %) CREB3L4 promoter region (20 μM CA, 6 h): −36.38%
DMR (Methylation %) CYP1A1 promoter region (20 μM CA, 6 h): −55.38%
DMR (Methylation %) ESR2 promoter region (20 μM CA, 6 h): −33.80%
DMR (Methylation %) FBP1 promoter region (20 μM CA, 6 h): −39.18%
DMR (Methylation %) FGF1 promoter region (20 μM CA, 6 h): −37.79%
DMR (Methylation %) FGF8 promoter region (20 μM CA, 6 h): −53.29%
DMR (Methylation %) FGFR2 promoter region (20 μM CA, 6 h): −47.13%
DMR (Methylation %) LDHA promoter region (20 μM CA, 6 h): −35.80%
DMR (Methylation %) LDHAL6A promoter region (20 μM CA, 6 h): −38.96%
DMR (Methylation %) LDHC promoter region (20 μM CA, 6 h): −31.45%
DMR (Methylation %) LEP promoter region (20 μM CA, 6 h): −35.18%
DMR (Methylation %) MIR29A promoter region (20 μM CA, 6 h): −32.98%
DMR (Methylation %) MIRLET7B promoter region (20 μM CA, 6 h): −34.85%
DMR (Methylation %) MTOR promoter region (20 μM CA, 6 h): −37.3%
DMR (Methylation %) NTRK3 promoter region (20 μM CA, 6 h): −49.89%
DMR (Methylation %) PDHA2 promoter region (20 μM CA, 6 h): −39.34%
DMR (Methylation %) PDHB promoter region (20 μM CA, 6 h): −42.31%
DMR (Methylation %) PHKG1 promoter region (20 μM CA, 6 h): −41.81%
DMR (Methylation %) PPARG promoter region (20 μM CA, 6 h): −37.32%
DMR (Methylation %) SDHA promoter region (20 μM CA, 6 h): −37.82%
DMR (Methylation %) SDHB promoter region (20 μM CA, 6 h): −39.54%
DMR (Methylation %) SPHK2 promoter region (20 μM CA, 6 h): −60.87%
